Reference: patent US20030105043A1, “Apoptosis-inducing ribozymes” (priority 2000, published 2003)

Legend:
rat MT-I cRNA = test: cell-free ribozyme cleavage of labeled rat MT-I cRNA; assay type: biochemical; conditions: for cleavage activity on rat MT-I cRNA: cell-free, excess unlabeled ribozyme, 37° C., 16 hours
Description: (§1) Bluescript plasmids containing the rat MT cDNA (pBSMT-I and pBSMT-2) were constructed as described above. A plasmid containing the mouse MT-I (pSP-MT-I) and a second plasmid (SDF 102.C1) containing MT-II cDNA (Durnam et al., 1980, Proc. Natl. Acad. Sci. USA 77:6511-6515) were linearized with HindIII and in vitro transcribed into labeled MT cRNAs with [α-32P]UTP, T3 RNA polymerase (Promega, Madison, Wis.), and the Maxiscript In Vitro Transcription Kit (Ambion, Inc, Austin, Tex.). Ribozymes were generated as unlabeled molecules from pRz1-2 and pRz4-9 using either the T3 or T7 promoter of the pClneo vectors, and unlabeled nucleoside triphosphates.
(§2) To test ribozyme activity, radiolabeled rat metallothionein cRNAs were synthesized by in vitro transcription from linearized plasmids and incubated with an excess of unlabeled ribozymes at 37° C. for 16 hours. The enzymatic activity was terminated with an equal volume of stop buffer. After denaturing at 95° C. for 2 minutes, the cleavage products were separated in a 6% polyacrylamide/8M urea gel, dried and exposed to X-ray film to obtain autoradiograms. The uncut rat MT-I (poly A) and MT-II (poly A) molecules were 435 nucleotides and 350 nucleotides, respectively. Rz1-2-mediated cleavage fragments of rat MT-I(poly A) were 360 nucleotides and 115 nucleotides in length. The cleavage fragments produced by Rz4-9 activity on MT-II(polyA) were 260 nucleotides and 90 nucleotides in length.
(§3) Initial experiments were designed to determine effective and linear catalytic temperature ranges for Rz1-2 and Rz4-9. A ribozyme and a labeled substrate were mixed in a 1:1 molar ratio in a 10 μL reaction mixture composed of 40 mM Tris-HCl (pH 7.5) and 20 mM MgCl2 (previously determined to be optimal for cleavage activity). The reaction mixture was denatured for 2 minutes at 95° C. and then snapcooled on ice for 5 minutes. Catalytic reactions were conducted at 25° C., 37° C., and 50° C. for 1, 3, or 16 hours. […] An excess of unlabeled anti-MT Rzs (Rz1-2 and Rz4-9) and their corresponding mutants (Rz2-6 and Rz3-3) were mixed with labeled rat or mouse MT-I or MT-II cRNA and incubated at 37° C. for 16 hours. At the end of these experiments, all catalytic reactions were terminated with an equal volume of stop buffer (10 mM EDTA, 90% formamide, 0.1% bromophenol blue, and 0.1% xylene cyanol). After denaturing at 95° C. for 2 minutes, the cleavage products were separated in a 6% polyacrylamide/8M urea gel, dried, and exposed to X-ray film to obtain autoradiograms. The sizes of the uncut rat MT-I (poly A) and MT-II (poly A) molecules were 435 nucleotides and 350 nucleotides, respectively. Rz1-2-mediated cleavage fragments of rat MT-I(poly A) were of 360 nucleotides and 115 nucleotides in length and those produced by Rz4-9 activity on MT-II(polyA) were 260 nucleotides and 90 nucleotides. Incubation with the mutant Rzs, Rz2-6 or Rz3-3, produced no products.
(§4) Hammerhead ribozymes were tested for specific endonuclease activity under cell-free conditions. In vitro transcription from pBSMT-I and pBSMT-II using 2.5 μg HindIII linearized plasmid and T3 RNA polymerase yielded 5 μg of rat MT-I and MT-II cRNA. In parallel, mouse MT-I and MT-II cRNA were generated from plasmids containing mouse MT sequences (pSP-MT-I). These molecules containing the entire metallothionein coding region and a poly (A) tail 435 nucleotides (rat MT-I cRNA), 350 nucleotides (rat MT-II cRNA), 380 nucleotides ([…]) and 460 nucleotides ([…]) in length. They were used as substrate for the ribozyme reactions. […] Similar sequence specificity data were obtained for mouse metallothionein cRNAs. All cleavage products were of the predicted sizes.

rat MT-II cRNA = test: cell-free ribozyme cleavage of labeled rat MT-II cRNA; assay type: biochemical; conditions: for cleavage activity on rat MT-II cRNA: cell-free, excess unlabeled ribozyme, 37° C., 16 hours
Description: as §1, §2, §3, §4

[1] = cell-free cleavage, 1:1 molar ratio

Substance | optimal Mg^2+ for ribozyme activity (rat MT-I cRNA; cell-free cleavage) [mM] | period over which ribozyme remained active (rat MT-I cRNA; cell-free cleavage) [h] | temperature at which ribozyme is most effective (rat MT-I cRNA; cell-free cleavage) [°C] | temperature range over which ribozyme is active (rat MT-I cRNA; [1]) | cleavage activity on rat MT-I cRNA (rat MT-I cRNA) | cleavage activity on rat MT-II cRNA (rat MT-II cRNA) | optimal Mg^2+ for ribozyme activity (rat MT-II cRNA; cell-free cleavage) [mM] | period over which ribozyme remained active (rat MT-II cRNA; cell-free cleavage) [h] | temperature at which ribozyme is most effective (rat MT-II cRNA; cell-free cleavage) [°C] | temperature range over which ribozyme is active (rat MT-II cRNA; [1])
Rz1-2: hammerhead ribozyme, SEQ ID NO:6, designed to cleave mouse and rat MT-I mRNA (GCGCCUUUGCACUGAUGAGUCCGUGAGGACGAAACACAGCCCU; listed as RNA, chemistry not given here) | 20 | 16 | 37 | 25-50 °C | active | no activity | – | – | – | –
Rz4-9: hammerhead ribozyme, SEQ ID NO:7, designed to cleave MT-II mRNA (CCUCUUUGCACUGAUGAGUCCGUGAGGACGAAAUGCAGCCCU; listed as RNA, chemistry not fully specified) | – | – | – | – | did not mediate rat MT-I cRNA cleavage | cut only rat MT-II cRNAs | 20 | 16 | 37 | 25-50 °C
